Measured values reported in ChEMBL document CHEMBL1159016, “Patellamide E: a new cyclic peptide from the ascidian Lissoclinum patella” (J Nat Prod, 1992).
Converted amounts (≈) assume the structure as drawn.

System: HCT-116
Experiment: Cytotoxicity against human HCT116 cells
Type: functional, cell-based

`CC[C@H](C)[C@@H]1NC(=O)c2csc(n2)[C@@H](C(C)C)NC(=O)[C@H]2N=C(O[C@@H]2C)[C@H](C(C)C)NC(=O)c2csc(n2)[C@@H](Cc2ccccc2)NC(=O)[C@H]2N=C1O[C@@H]2C` [PATELLAMIDE E] was tested. Which IC50 did it give?
The IC50 was 125 µg/mL (≈ 158 µM).
